{"source": "ChEMBL document CHEMBL5518238", "about": "“Structure-Activity Relationship (SAR) Studies of Novel Monovalent AR/AR-V7 Dual Degraders with Potent Efficacy against Advanced Prostate Cancer” (J Med Chem, 2024)", "key": {"[1]": {"tested_on": "Androgen receptor (Homo sapiens), P10275 [UNDEFINED MUTATION]", "assay": "Binding affinity to AR-V7 (unknwon origin) assessed as thermal stabilization at 10 uM incubated for 2 hrs by CETSA analysis", "type": "cell-based", "details": "22Rv1"}, "[2]": {"biological_target": "T1, Androgen receptor (Homo sapiens) (UniProt P10275)", "T1 sequence (whole entry)": "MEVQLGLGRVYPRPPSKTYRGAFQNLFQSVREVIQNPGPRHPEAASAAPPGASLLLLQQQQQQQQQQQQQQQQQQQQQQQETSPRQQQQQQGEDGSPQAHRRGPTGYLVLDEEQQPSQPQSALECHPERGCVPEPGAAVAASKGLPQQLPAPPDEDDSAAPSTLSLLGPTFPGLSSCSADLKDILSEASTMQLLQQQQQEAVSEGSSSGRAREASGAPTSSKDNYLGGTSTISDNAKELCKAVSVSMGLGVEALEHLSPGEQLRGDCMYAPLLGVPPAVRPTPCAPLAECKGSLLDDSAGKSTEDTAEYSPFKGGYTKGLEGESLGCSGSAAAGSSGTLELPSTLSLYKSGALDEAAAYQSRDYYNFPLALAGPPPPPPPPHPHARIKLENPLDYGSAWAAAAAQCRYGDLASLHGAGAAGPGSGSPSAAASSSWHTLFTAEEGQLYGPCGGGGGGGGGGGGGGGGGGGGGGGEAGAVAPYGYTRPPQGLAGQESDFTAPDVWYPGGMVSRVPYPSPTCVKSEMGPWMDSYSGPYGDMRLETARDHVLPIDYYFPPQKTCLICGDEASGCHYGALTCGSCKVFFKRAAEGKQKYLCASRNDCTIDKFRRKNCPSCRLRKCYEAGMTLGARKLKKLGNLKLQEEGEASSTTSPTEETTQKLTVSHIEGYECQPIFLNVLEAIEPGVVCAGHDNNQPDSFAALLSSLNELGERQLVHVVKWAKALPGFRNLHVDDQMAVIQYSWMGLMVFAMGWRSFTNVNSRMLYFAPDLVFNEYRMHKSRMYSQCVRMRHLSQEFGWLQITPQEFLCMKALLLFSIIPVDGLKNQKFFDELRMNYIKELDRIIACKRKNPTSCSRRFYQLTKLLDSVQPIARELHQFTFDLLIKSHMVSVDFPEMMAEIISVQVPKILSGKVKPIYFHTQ", "assay": "Binding affinity to AR (unknown origin) assessed as thermal stabilization at 10 uM incubated for 2 hrs by CETSA analysis", "type": "cell-based", "details": "22Rv1"}, "[3]": {"tested_on": "CWR22R", "assay": "Downregulation of BARD1 mRNA expression in human 22Rv1 cells at 10 uM incubated for 24 hrs by qRT-PCR analysis", "type": "functional, cell-based"}, "[4]": {"tested_on": "CWR22R", "assay": "Downregulation of ABHD2 mRNA expression in human 22Rv1 cells at 10 uM incubated for 24 hrs by qRT-PCR analysis", "type": "functional, cell-based"}, "[5]": {"tested_on": "CWR22R", "assay": "Downregulation of AR-V7 mRNA expression in human 22Rv1 cells at 5 to 10 uM incubated for 12 hrs by qRT-PCR analysis", "type": "functional, cell-based", "details": "dose 5-10 µM"}, "[6]": {"assay": "AUC (0 to t) in Sprague-Dawley rat at 50 mg/kg, po by LC-MS/MS analysis", "type": "ADME, organism-based", "details": "in vivo"}, "[7]": {"assay": "MRT (0 to infinity) in Sprague-Dawley rat at 50 mg/kg, po by LC-MS/MS analysis", "type": "ADME, organism-based", "details": "in vivo"}, "[8]": {"assay": "Toxicity in NSG mouse xenografted with human 22Rv1 cells assessed as effect on body weight at 30 mg/kg, IG administered once daily for 21 days", "type": "organism-based, CWR22R", "details": "in vivo, po, 504 h, time 21 day"}, "[9]": {"tested_on": "CWR22R", "assay": "Effect on ER level in human 22Rv1 at 2.5 to 20 uM incubated for 24 hrs by Western blot analysis", "type": "functional, cell-based", "details": "dose 2.5-20 µM"}, "[10]": {"tested_on": "CWR22R", "assay": "Induction of apoptosis in human 22Rv1 cells at 1 uM incubated for 24 hrs by Annexin V-FITC/PI staining based flow cytometric analysis (reference value: 3.70 %)", "type": "functional"}, "[11]": {"tested_on": "CWR22R", "assay": "Induction of cell cycle arrest in human 22Rv1 cells assessed as accumulation of cells at G0/G1 phase at 1 uM incubated for 24 hrs by DAPI staining based flow cytometric analysis (reference value: 26.3 %)", "type": "functional"}, "[12]": {"tested_on": "CWR22R", "assay": "Downregulation of SLC26A2 mRNA expression in human 22Rv1 cells at 10 uM incubated for 24 hrs by qRT-PCR analysis", "type": "functional, cell-based"}, "[13]": {"assay": "MRT (0 to t) in Sprague-Dawley rat at 50 mg/kg, po by LC-MS/MS analysis", "type": "ADME, organism-based", "details": "in vivo"}, "[14]": {"tested_on": "CWR22R", "assay": "Induction of apoptosis in human 22Rv1 cells at 5 uM incubated for 24 hrs by Annexin V-FITC/PI staining based flow cytometric analysis (reference value: 3.70 %)", "type": "functional"}, "[15]": {"biological_target": "T1, Androgen receptor (Homo sapiens)", "assay": "Induction of AR degradation in human 22Rv1 cells at 10 uM incubated for 24 hrs in presence of MDM2 by Western blot analysis", "type": "cell-based"}, "[16]": {"biological_target": "T1, Androgen receptor (Homo sapiens)", "assay": "Binding affinity to AR-NTD in human 22Rv1 cels by SPR analysis"}, "[17]": {"tested_on": "Androgen receptor (Homo sapiens), P10275 [UNDEFINED MUTATION]", "assay": "Induction of AR-V7 degradation in human 22Rv1 cells at 10 uM incubated for 24 hrs in presence of […] by Western blot analysis", "type": "cell-based"}, "[18]": {"assay": "AUC (0 to t) in Sprague-Dawley rat at 5 mg/kg, iv by LC-MS/MS analysis", "type": "ADME, organism-based", "details": "in vivo"}, "[19]": {"tested_on": "CWR22R", "assay": "Downregulation of PEG3 mRNA expression in human 22Rv1 cells at 10 uM incubated for 24 hrs by qRT-PCR analysis", "type": "functional, cell-based"}, "[20]": {"assay": "Half life in Sprague-Dawley rat at 50 mg/kg, po by LC-MS/MS analysis", "type": "ADME, organism-based", "details": "in vivo"}, "[21]": {"tested_on": "CWR22R", "assay": "Antitumor activity against human 22Rv1 cells xenografted in NSG mouse assessed as change in tumor volume at 30 mg/kg, IG administered once daily for 21 days", "type": "functional, organism-based", "details": "time 21.0 day"}, "[22]": {"assay": "Toxicity in NSG mouse xenografted with human 22Rv1 cells assessed as liver damage t at 30 mg/kg, IG administered once daily for 21 days by H and E staining based analysis", "type": "organism-based, CWR22R", "details": "in vivo, po, 504 h, time 21 day"}, "[23]": {"tested_on": "CWR22R", "assay": "Downregulation of ACSL3 mRNA expression in human 22Rv1 cells at 10 uM incubated for 24 hrs by qRT-PCR analysis", "type": "functional, cell-based"}, "[24]": {"tested_on": "CWR22R", "assay": "Downregulation of AR-V7 expression in human 22Rv1 cells at 5 uM incubated for 24 hrs by Western blot analysis", "type": "functional, cell-based"}, "[25]": {"tested_on": "CWR22R", "assay": "Induction of apoptosis in human 22Rv1 cells assessed as effect on PARP1 level incubated for 24 hrs by Western blot analysis", "type": "functional, cell-based", "details": "dose <= 10.0 µM"}, "[26]": {"tested_on": "CWR22R", "assay": "Downregulation of KLK2 mRNA expression in human 22Rv1 cells incubated for 24 hrs by qRT-PCR analysis", "type": "functional, cell-based", "details": "dose 5-10 µM"}, "[27]": {"tested_on": "CWR22R", "assay": "Downregulation of NCAPD3 mRNA expression in human 22Rv1 cells at 10 uM incubated for 24 hrs by qRT-PCR analysis", "type": "functional, cell-based"}, "[28]": {"tested_on": "CWR22R", "assay": "Induction of apoptosis in human 22Rv1 cells assessed as effect on Bcl-2 level incubated for 24 hrs by Western blot analysis", "type": "functional, cell-based", "details": "dose <= 10.0 µM"}, "[29]": {"assay": "AUC (0 to infinity) in Sprague-Dawley rat at 50 mg/kg, po by LC-MS/MS analysis", "type": "ADME, organism-based", "details": "in vivo"}, "[30]": {"assay": "Volume of distribution at steady state in Sprague-Dawley rat at 5 mg/kg, iv by LC-MS/MS analysis", "type": "ADME, organism-based", "details": "in vivo"}}, "note": "Activity calls are given as the source filed them. The calls are words filed in the database; no cut-off is given here.", "data": [{"smiles": "CC1(C)C(=O)N(c2ccc(C#N)c(C(F)(F)F)c2)C(=O)N1CCNc1ccc(F)c2ncccc12", "values": [{"measurement": "Activity", "setting": "[1]", "value": "inactive"}, {"measurement": "Activity", "setting": "[2]", "value": "inactive"}, {"measurement": "Activity", "setting": "[3]", "value": "Active"}, {"measurement": "Activity", "setting": "[4]", "value": "Active"}, {"measurement": "Activity", "setting": "[5]", "value": "Active"}, {"measurement": "AUC(0-t)", "setting": "[6]", "value": 3060, "unit": "ng·h/mL"}, {"measurement": "MRT inf", "setting": "[7]", "value": 4.1, "unit": "h"}, {"measurement": "Activity", "setting": "[8]", "value": "Non-Toxic"}, {"measurement": "Activity", "setting": "[9]", "value": "Active"}, {"measurement": "Activity", "setting": "[10]", "value": 11.94, "unit": "%"}, {"measurement": "Activity", "setting": "[11]", "value": 41.5, "unit": "%"}, {"measurement": "Activity", "setting": "[12]", "value": "Active"}, {"measurement": "MRT last", "setting": "[13]", "value": 3.2, "unit": "h"}, {"measurement": "Activity", "setting": "[14]", "value": 18.81, "unit": "%"}, {"measurement": "Activity", "setting": "[15]", "value": "Active"}, {"measurement": "Activity", "setting": "[16]", "value": "Active"}, {"measurement": "Activity", "setting": "[17]", "value": "Active"}, {"measurement": "AUC(0-t)", "setting": "[18]", "value": 2870, "unit": "ng·h/mL"}, {"measurement": "Activity", "setting": "[19]", "value": "Active"}, {"measurement": "half-life", "setting": "[20]", "value": 132, "unit": "min"}, {"measurement": "Activity", "setting": "[21]", "value": "Active"}, {"measurement": "Activity", "setting": "[22]", "value": "Non-Toxic"}, {"measurement": "Activity", "setting": "[23]", "value": "Active"}, {"measurement": "Activity", "setting": "[24]", "value": "Active"}, {"measurement": "Activity", "setting": "[25]", "value": "Dose-Dependent Effect"}, {"measurement": "Activity", "setting": "[26]", "value": "Dose-Dependent Effect"}, {"measurement": "Activity", "setting": "[27]", "value": "Active"}, {"measurement": "Activity", "setting": "[28]", "value": "Dose-Dependent Effect"}, {"measurement": "AUC(0-inf)", "setting": "[29]", "value": 3470, "unit": "ng·h/mL"}, {"measurement": "Vdss", "setting": "[30]", "value": 2.5, "unit": "L/kg"}]}]}
